According to US9169290B2, “Peptides and their use” (priority 2007, dated 2015):
In brackets after ≈: the same amount, converted by molar mass. Read-outs that look alike come from different tables or passages of the source.

Assays:
C. albicans = type: cell-based, Candida albicans
Procedure: (§1) Broth Dilution Antifungal Susceptibility Testing
(§2) The sensitivity of relevant fungal strains to the peptides was determined using Clinical Laboratory Standard Institute (CLSI; formerly NCCLS) Approved Standards.

C. krusei = type: cell-based, Candida krusei
Procedure: as §1, §2

C. parapsilosis = type: cell-based, Candida parapsilosis
Procedure: as §1
The sensitivity of relevant fungal strains to the peptides was determined using Clinical Laboratory Standard Institute (CLSI; formerly NCCLS) Approved Standards. Fungal susceptibility was tested using “Reference Method for Broth Dilution Antifungal Susceptibility Testing of Filamentous Fungi; […];

C. tropicalis = assay: Broth dilution antifungal susceptibility testing of yeasts (CLSI M27-A), MIC; type: cell-based, Candida tropicalis
Procedure: as §1
(§3) The sensitivity of relevant fungal strains to the peptides was determined using Clinical Laboratory Standard Institute (CLSI; formerly NCCLS) Approved Standards. Fungal susceptibility was tested using “Reference Method for Broth Dilution Antifungal Susceptibility Testing of Filamentous Fungi; Approved Standard M38-P”, and yeast susceptibility was tested using “Reference Method for Broth Dilution Antifungal Susceptibility Testing of Yeasts; Approved Standard—Second Edition M27-A”.

C. glabrata = assay: as above; type: cell-based, Candida glabrata
Procedure: as §1, §3

Cryptococcus neoformans = assay: as above; type: cell-based; conditions: Cryptococcus neoformans strain DSM11959
Procedure: as §1, §3

A. nidulans = assay: Broth dilution antifungal susceptibility testing of filamentous fungi (CLSI M38-P), MIC; type: cell-based, Aspergillus nidulans
Procedure: as §1, §3

A. niger = assay: as above; type: cell-based, Aspergillus niger
Procedure: as §1, §3

Alternaria spp. = assay: Broth dilution antifungal susceptibility testing, MIC; type: cell-based; conditions: Alternaria spp. strain DM 2006 1218a
Procedure: as §1, §3

Fusarium solani = assay: as above; type: cell-based; conditions: Fusarium solani strain NCPF2877
Procedure: as §1, §3

Penicillium spp. = assay: as above; type: cell-based; conditions: Penicillium spp. strain DM 2006 1285b
Procedure: as §1, §3

[1] = test system: Scopulariopsis brevicaulis; assay: as above; type: cell-based; conditions: Scopulariopsis brevicaulis strain DM 2006 1025
Procedure: as §1, §3

Compound: N=C(N)NCCC[C@@H](N)C(=O)N[C@H](CCCNC(=N)N)C(=O)N[C@H](CCCNC(=N)N)C(=O)N[C@H](CCCNC(=N)N)C(=O)N[C@H](CCCNC(=N)N)C(=O)N[C@H](CCCNC(=N)N)C(=O)N[C@H](CCCNC(=N)N)C(=O)N[C@H](CCCNC(=N)N)C(=O)N[C@H](CCCNC(=N)N)C(=O)N[C@H](CCCNC(=N)N)C(=O)N[C@H](CCCNC(=N)N)C(=O)N[C@H](CCCNC(=N)N)C(=O)N[C@H](CCCNC(=N)N)C(=O)O [NP339, dRdRdRdRdRdRdRdRdRdRdRdRdR]
- MIC, Candida albicans ATCC90028 (C. albicans): 2 µM (≈ 4.1 µg/mL)
- MIC (C. krusei; C. krusei strain AM2005/0492): 1 µM (≈ 2.05 µg/mL)
- MIC (C. krusei; C. krusei strain AM2005/0494): 1 µM (≈ 2.05 µg/mL)
- MIC (C. krusei; C. krusei strain AM2005/0496): 2 µM (≈ 4.1 µg/mL)
- MIC (C. krusei; C. krusei strain AM2005/0498): 1 µM (≈ 2.05 µg/mL)
- MIC (C. krusei; C. krusei strain AM2005/0525): 2 µM (≈ 4.1 µg/mL)
- MIC (C. krusei; C. krusei strain AM2005/0531): 2 µM (≈ 4.1 µg/mL)
- MIC (C. krusei; C. krusei strain AM2006/0127): 1 µM (≈ 2.05 µg/mL)
- MIC (C. krusei; C. krusei strain AM2007/0102): 2 µM (≈ 4.1 µg/mL)
- MIC (C. krusei; C. krusei strain AM2007/0103): 2 µM (≈ 4.1 µg/mL)
- MIC (C. krusei; C. krusei strain AM2007/0104): 1 µM (≈ 2.05 µg/mL)
- MIC (C. krusei; C. krusei strain AM2007/0105): 1 µM (≈ 2.05 µg/mL)
- MIC (C. krusei; C. krusei strain AM2007/0106): 1 µM (≈ 2.05 µg/mL)
- MIC (C. krusei; C. krusei strain AM2007/0107): 1 µM (≈ 2.05 µg/mL)
- MIC (C. krusei; C. krusei strain AM2007/0109): 1 µM (≈ 2.05 µg/mL)
- MIC (C. krusei; C. krusei strain AM30274.04): 2 µM (≈ 4.1 µg/mL)
- MIC (C. krusei; C. krusei strain AM30308.03.05): 1 µM (≈ 2.05 µg/mL)
- MIC (C. krusei; C. krusei strain AM30332.04.05): 2 µM (≈ 4.1 µg/mL)
- MIC (C. krusei; C. krusei strain AM30455.04.05): 1 µM (≈ 2.05 µg/mL)
- MIC (C. krusei; C. krusei strain AM31194/04/05): 2 µM (≈ 4.1 µg/mL)
- MIC (C. krusei; C. krusei strain AM31300/04/05): 2 µM (≈ 4.1 µg/mL)
- MIC (C. krusei; C. krusei strain ATCC6258): 2 µM (≈ 4.1 µg/mL)
- MIC (C. parapsilosis; C. parapsilosis strain AM2004/0133): 1 to 2 µM
- MIC (C. parapsilosis; C. parapsilosis strain AM2005-0112): 2 µM (≈ 4.1 µg/mL)
- MIC (C. parapsilosis; C. parapsilosis strain AM2005/0233): 8 µM (≈ 16.4 µg/mL)
- MIC (C. parapsilosis; C. parapsilosis strain AM2005/0237): 1 µM (≈ 2.05 µg/mL)
- MIC (C. parapsilosis; C. parapsilosis strain AM2005/0238): 16 µM (≈ 32.8 µg/mL)
- MIC (C. parapsilosis; C. parapsilosis strain AM2005/0239): 1 µM (≈ 2.05 µg/mL)
- MIC (C. parapsilosis; C. parapsilosis strain AM2005/0242): 4 µM (≈ 8.19 µg/mL)
- MIC (C. parapsilosis; C. parapsilosis strain AM2005/0337): 2 to 16 µM
- MIC (C. parapsilosis; C. parapsilosis strain AM2007/0131): 4 to 32 µM
- MIC (C. parapsilosis; C. parapsilosis strain AM2007/0132): 16 to 32 µM
- MIC (C. parapsilosis; C. parapsilosis strain AM2007/0134): 4 to 32 µM
- MIC (C. parapsilosis; C. parapsilosis strain AM2007/0135): 1 to 2 µM
- MIC (C. parapsilosis; C. parapsilosis strain AM2007/0136): 2 µM (≈ 4.1 µg/mL)
- MIC (C. parapsilosis; C. parapsilosis strain AM2007/0137): 8 to 32 µM
- MIC (C. parapsilosis; C. parapsilosis strain AM2007/0138): 16 to 32 µM
- MIC (C. parapsilosis; C. parapsilosis strain AM2007/0139): 8 µM (≈ 16.4 µg/mL)
- MIC (C. parapsilosis; C. parapsilosis strain ATCC22019): 1 to 2 µM
- MIC (C. parapsilosis; C. parapsilosis strain ATCC90018): 2 µM (≈ 4.1 µg/mL)
- MIC (C. tropicalis; C. tropicalis strain AM2004/0087): 1 µM (≈ 2.05 µg/mL)
- MIC (C. tropicalis; C. tropicalis strain AM2004/0088): 1 µM (≈ 2.05 µg/mL)
- MIC (C. tropicalis; C. tropicalis strain AM2004/0089): 1 µM (≈ 2.05 µg/mL)
- MIC (C. tropicalis; C. tropicalis strain AM2004/0090): 1 µM (≈ 2.05 µg/mL)
- MIC (C. tropicalis; C. tropicalis strain AM2004/0091): 1 µM (≈ 2.05 µg/mL)
- MIC (C. tropicalis; C. tropicalis strain ATCC750): 2 µM (≈ 4.1 µg/mL)
- MIC (C. glabrata; C. glabrata strain AM2002/0085): 2 µM (≈ 4.1 µg/mL)
- MIC (C. glabrata; C. glabrata strain AM2002/0088): 1 µM (≈ 2.05 µg/mL)
- MIC (C. glabrata; C. glabrata strain AM2007/0113): 2 µM (≈ 4.1 µg/mL)
- MIC (C. glabrata; C. glabrata strain AM2007/0114): 1 µM (≈ 2.05 µg/mL)
- MIC (C. glabrata; C. glabrata strain AM2007/0115): 2 µM (≈ 4.1 µg/mL)
- MIC (C. glabrata; C. glabrata strain AM2007/0116): 1 µM (≈ 2.05 µg/mL)
- MIC (C. glabrata; C. glabrata strain AM2007/0117): 1 µM (≈ 2.05 µg/mL)
- MIC (C. glabrata; C. glabrata strain AM2007/0118): 2 µM (≈ 4.1 µg/mL)
- MIC (C. glabrata; C. glabrata strain AM2007/0119): 1 µM (≈ 2.05 µg/mL)
- MIC (C. glabrata; C. glabrata strain AM2007/0120): 2 µM (≈ 4.1 µg/mL)
- MIC (C. glabrata; C. glabrata strain AM2007/0121): 1 µM (≈ 2.05 µg/mL)
- MIC (C. glabrata; C. glabrata strain AM2007/0122): 1 µM (≈ 2.05 µg/mL)
- MIC (C. glabrata; C. glabrata strain AM2007/0123): 1 µM (≈ 2.05 µg/mL)
- MIC (C. glabrata; C. glabrata strain AM2007/0124): 1 µM (≈ 2.05 µg/mL)
- MIC (C. glabrata; C. glabrata strain AM2007/0125): 2 µM (≈ 4.1 µg/mL)
- MIC (C. glabrata; C. glabrata strain AM2007/0126): 1 µM (≈ 2.05 µg/mL)
- MIC (C. glabrata; C. glabrata strain AM2007/0127): 1 µM (≈ 2.05 µg/mL)
- MIC (C. glabrata; C. glabrata strain AM2007/0128): 1 µM (≈ 2.05 µg/mL)
- MIC (C. glabrata; C. glabrata strain AM2007/0129): 1 µM (≈ 2.05 µg/mL)
- MIC (C. glabrata; C. glabrata strain AM2007/0130): 1 µM (≈ 2.05 µg/mL)
- MIC (Cryptococcus neoformans): 1 µM (≈ 2.05 µg/mL)
- MIC (A. nidulans; A nidulans strain AFG97-71): 4000 µM (≈ 8190 µg/mL)
- MIC (A. nidulans; A nidulans strain AFG99-247): 256 µM (≈ 524 µg/mL)
- MIC (A. nidulans; A nidulans strain AFG99-1373): 62.5 µM (≈ 128 µg/mL)
- MIC (A. nidulans; A nidulans strain NCPF2691): 3.9 µM (≈ 7.99 µg/mL)
- MIC (A. nidulans; A. nidulans strain AFG00-676): 1000 µM (≈ 2050 µg/mL)
- MIC (A. nidulans; A. nidulans strain AFG01-835): 1000 µM (≈ 2050 µg/mL)
- MIC (A. nidulans; A. nidulans strain AFG01-1716): 62.5 µM (≈ 128 µg/mL)
- MIC (A. nidulans; A. nidulans strain AFG97-453): 62.5 µM (≈ 128 µg/mL)
- MIC (A. nidulans; A. nidulans strain AFG 98-281): 62.5 µM (≈ 128 µg/mL)
- MIC (A. nidulans; A. nidulans strain AFG99-2387): 62.5 µM (≈ 128 µg/mL)
- MIC (A. nidulans; A. nidulans strain AFG9811-35): 125 µM (≈ 256 µg/mL)
- MIC (A. nidulans; A. nidulans strain AFGR2952): 62.5 µM (≈ 128 µg/mL)
- MIC (A. niger; A. niger strain AFG 01-60): 62.5 µM (≈ 128 µg/mL)
- MIC (A. niger; A. niger strain AFG 01-237): 1000 µM (≈ 2050 µg/mL)
- MIC (A. niger; A. niger strain AFG 01-381): 62.5 µM (≈ 128 µg/mL)
- MIC (A. niger; A. niger strain AFG 01-385): 1000 µM (≈ 2050 µg/mL)
- MIC (A. niger; A. niger strain AFG 01-423): 62.5 µM (≈ 128 µg/mL)
- MIC (A. niger; A. niger strain AFG 01-783): 62.5 µM (≈ 128 µg/mL)
- MIC (A. niger; A. niger strain AFG 01-809): 62.5 µM (≈ 128 µg/mL)
- MIC (A. niger; A. niger strain AFG 01-1237): 62.5 µM (≈ 128 µg/mL)
- MIC (A. niger; A. niger strain AFG 01-1286): 62.5 µM (≈ 128 µg/mL)
- MIC (A. niger; A. niger strain AFG 01-1424): 62.5 µM (≈ 128 µg/mL)
- MIC (A. niger; A. niger strain AFG 01-1494): 62.5 µM (≈ 128 µg/mL)
- MIC (A. niger; A. niger strain AFG 01-2103): 62.5 µM (≈ 128 µg/mL)
- MIC (A. niger; A. niger strain AFG 01-2112): 62.5 µM (≈ 128 µg/mL)
- MIC (A. niger; A. niger strain AFG 01-2267): 62.5 µM (≈ 128 µg/mL)
- MIC (A. niger; A. niger strain AFG 01-2620): >4000 µM
- MIC (A. niger; A. niger strain AFG 01-2840): 62.5 µM (≈ 128 µg/mL)
- MIC (A. niger; A. niger strain AFG J940179): 62.5 µM (≈ 128 µg/mL)
- MIC (A. niger; A. niger strain AFG J970467): 62.5 µM (≈ 128 µg/mL)
- MIC (A. niger; A. niger strain NCPF2022): 7.8 µM (≈ 16 µg/mL)
- MIC (Alternaria spp.): 7.8 µM (≈ 16 µg/mL)
- MIC (Fusarium solani): 3.9 µM (≈ 7.99 µg/mL)
- MIC (Penicillium spp.): 15.6 µM (≈ 32 µg/mL)
- MIC [1]: 1 µM (≈ 2.05 µg/mL)
